Laboratory results as given in ChEMBL document CHEMBL3352489, “6-Hydroxyquinolinium salts differing in the length of alkyl side-chain: synthesis and antimicrobial activity” (Bioorg Med Chem Lett, 2014).

Columns and labels:
Staphylococcus aureus [1] = assay: microbe, parasite or virus in culture; type: functional; conditions: CCM 4516/08, 24 h
Description: Antibacterial activity against Staphylococcus aureus CCM 4516/08 after 24 hrs by microdilution broth method

Staphylococcus aureus [2] = assay: microbe, parasite or virus in culture; type: functional; conditions: CCM 4516/08, 48 h
Description: Antibacterial activity against Staphylococcus aureus CCM 4516/08 after 48 hrs by microdilution broth method

Staphylococcus aureus [3] = assay: Bactericidal activity against Staphylococcus aureus CCM 4516/08 after 48 hrs by microdilution broth method; type: functional; conditions: CCM 4516/08, 48 h, read-out: MBC>99.9
Staphylococcus aureus [4] = assay: microbe, parasite or virus in culture; type: functional; conditions: H 5996/08, 24 h
Description: Antibacterial activity against Staphylococcus aureus H 5996/08 after 24 hrs by microdilution broth method

Staphylococcus aureus [5] = assay: microbe, parasite or virus in culture; type: functional; conditions: H 5996/08, 48 h
Description: Antibacterial activity against Staphylococcus aureus H 5996/08 after 48 hrs by microdilution broth method

Staphylococcus aureus [6] = assay: Bactericidal activity against Staphylococcus aureus H 5996/08 after 48 hrs by microdilution broth method; type: functional; conditions: H 5996/08, 48 h, read-out: MBC>99.9
[7] = tested on: Staphylococcus epidermidis; assay: microbe, parasite or virus in culture; type: functional; conditions: H 6966/08, 24 h
Description: Antibacterial activity against Staphylococcus epidermidis H 6966/08 after 24 hrs by microdilution broth method

[8] = tested on: Staphylococcus epidermidis; assay: microbe, parasite or virus in culture; type: functional; conditions: H 6966/08, 48 h
Description: Antibacterial activity against Staphylococcus epidermidis H 6966/08 after 48 hrs by microdilution broth method

[9] = tested on: Staphylococcus epidermidis; assay: Bactericidal activity against Staphylococcus epidermidis H 6966/08 after 48 hrs by microdilution broth method; type: functional; conditions: H 6966/08, 48 h, read-out: MBC>99.9
Enterococcus sp. [10] = assay: microbe, parasite or virus in culture; type: functional; conditions: J 14365/08, 24 h
Description: Antibacterial activity against Enterococcus sp. J 14365/08 after 24 hrs by microdilution broth method

Enterococcus sp. [11] = assay: microbe, parasite or virus in culture; type: functional; conditions: J 14365/08, 48 h
Description: Antibacterial activity against Enterococcus sp. J 14365/08 after 48 hrs by microdilution broth method

Enterococcus sp. [12] = assay: Bactericidal activity against Enterococcus sp. J 14365/08 after 48 hrs by microdilution broth method; type: functional; conditions: J 14365/08, 48 h, read-out: MBC>99.9
Escherichia coli [13] = assay: microbe, parasite or virus in culture; type: functional; conditions: CCM 4517, 24 h
Description: Antibacterial activity against Escherichia coli CCM 4517 after 24 hrs by microdilution broth method

Escherichia coli [14] = assay: microbe, parasite or virus in culture; type: functional; conditions: CCM 4517, 48 h
Description: Antibacterial activity against Escherichia coli CCM 4517 after 48 hrs by microdilution broth method

Escherichia coli [15] = assay: Bactericidal activity against Escherichia coli CCM 4517 after 48 hrs by microdilution broth method; type: functional; conditions: CCM 4517, 48 h, read-out: MBC>99.9
Klebsiella pneumoniae [16] = assay: microbe, parasite or virus in culture; type: functional; conditions: D 11750/08, 24 h
Description: Antibacterial activity against Klebsiella pneumoniae D 11750/08 after 24 hrs by microdilution broth method

Klebsiella pneumoniae [17] = assay: microbe, parasite or virus in culture; type: functional; conditions: D 11750/08, 48 h
Description: Antibacterial activity against Klebsiella pneumoniae D 11750/08 after 48 hrs by microdilution broth method

Klebsiella pneumoniae [18] = assay: Bactericidal activity against Klebsiella pneumoniae D 11750/08 after 24 hrs by microdilution broth method; type: functional; conditions: D 11750/08, 24 h, read-out: MBC>99.9
Klebsiella pneumoniae [19] = assay: microbe, parasite or virus in culture; type: functional; conditions: J 14368/08, 24 h
Description: Antibacterial activity against Klebsiella pneumoniae J 14368/08 after 24 hrs by microdilution broth method

Klebsiella pneumoniae [20] = assay: microbe, parasite or virus in culture; type: functional; conditions: J 14368/08, 48 h
Description: Antibacterial activity against Klebsiella pneumoniae J 14368/08 after 48 hrs by microdilution broth method

Klebsiella pneumoniae [21] = assay: Bactericidal activity against Klebsiella pneumoniae J 14368/08 after 48 hrs by microdilution broth method; type: functional; conditions: J 14368/08, 48 h, read-out: MBC>99.9
Pseudomonas aeruginosa [22] = assay: microbe, parasite or virus in culture; type: functional; conditions: CCM 1961, 72 h
Description: Antibacterial activity against Pseudomonas aeruginosa CCM 1961 after 72 hrs by microdilution broth method

Pseudomonas aeruginosa [23] = assay: microbe, parasite or virus in culture; type: functional; conditions: CCM 1961, 120 h
Description: Antibacterial activity against Pseudomonas aeruginosa CCM 1961 after 120 hrs by microdilution broth method

Pseudomonas aeruginosa [24] = assay: Bactericidal activity against Pseudomonas aeruginosa CCM 1961 after 120 hrs by microdilution broth method; type: functional; conditions: CCM 1961, 120 h, read-out: MBC>99.9
Candida albicans [25] = assay: microbe, parasite or virus in culture; type: functional; conditions: ATCC 44859, 24 h
Description: Antifungal activity against Candida albicans ATCC 44859 after 24 hrs by modified standard CSLI M27-A2 method

Candida albicans [26] = assay: microbe, parasite or virus in culture; type: functional; conditions: ATCC 44859, 48 h
Description: Antifungal activity against Candida albicans ATCC 44859 after 48 hrs by modified standard CSLI M27-A2 method

Candida albicans [27] = assay: Fungicidal activity against Candida albicans ATCC 44859 after 48 hrs by modified standard CSLI M27-A2 method; type: functional; conditions: ATCC 44859, 48 h
Candida tropicalis [28] = assay: microbe, parasite or virus in culture; type: functional; conditions: Candida tropicalis, 156, 24 h
Description: Antifungal activity against Candida tropicalis 156 after 24 hrs by modified standard CSLI M27-A2 method

Candida tropicalis [29] = assay: microbe, parasite or virus in culture; type: functional; conditions: Candida tropicalis, 156, 48 h
Description: Antifungal activity against Candida tropicalis 156 after 48 hrs by modified standard CSLI M27-A2 method

Candida tropicalis [30] = assay: Fungicidal activity against Candida tropicalis 156 after 48 hrs by modified standard CSLI M27-A2 method; type: functional; conditions: Candida tropicalis, 156, 48 h
Pichia kudriavzevii [31] = assay: Antifungal activity against Candida krusei E28 after 24 hrs by modified standard CSLI M27-A2 method; type: functional; conditions: E28, 24 h
Pichia kudriavzevii [32] = assay: Antifungal activity against Candida krusei E28 after 48 hrs by modified standard CSLI M27-A2 method; type: functional; conditions: E28, 48 h
Pichia kudriavzevii [33] = assay: Fungicidal activity against Candida krusei E28 after 48 hrs by modified standard CSLI M27-A2 method; type: functional; conditions: E28, 48 h
Nakaseomyces glabratus [34] = assay: Antifungal activity against Candida glabrata 20/I after 24 hrs by modified standard CSLI M27-A2 method; type: functional
Nakaseomyces glabratus [35] = assay: Antifungal activity against Candida glabrata 20/I after 48 hrs by modified standard CSLI M27-A2 method; type: functional
Nakaseomyces glabratus [36] = assay: Fungicidal activity against Candida glabrata 20/I after 48 hrs by modified standard CSLI M27-A2 method; type: functional
Trichosporon asahii [37] = assay: microbe, parasite or virus in culture; type: functional; conditions: Trichosporon asahii, 1188, 24 h
Description: Antifungal activity against Trichosporon asahii 1188 after 24 hrs by modified standard CSLI M27-A2 method

Trichosporon asahii [38] = assay: microbe, parasite or virus in culture; type: functional; conditions: Trichosporon asahii, 1188, 48 h
Description: Antifungal activity against Trichosporon asahii 1188 after 48 hrs by modified standard CSLI M27-A2 method

Trichosporon asahii [39] = assay: Fungicidal activity against Trichosporon asahii 1188 after 48 hrs by modified standard CSLI M27-A2 method; type: functional; conditions: Trichosporon asahii, 1188, 48 h
Aspergillus fumigatus [40] = assay: microbe, parasite or virus in culture; type: functional; conditions: Aspergillus fumigatus, 231, 24 h
Description: Antifungal activity against Aspergillus fumigatus 231 after 24 hrs by modified standard CSLI M27-A2 method

Aspergillus fumigatus [41] = assay: microbe, parasite or virus in culture; type: functional; conditions: Aspergillus fumigatus, 231, 48 h
Description: Antifungal activity against Aspergillus fumigatus 231 after 48 hrs by modified standard CSLI M27-A2 method

Aspergillus fumigatus [42] = assay: Fungicidal activity against Aspergillus fumigatus 231 after 48 hrs by modified standard CSLI M27-A2 method; type: functional; conditions: Aspergillus fumigatus, 231, 48 h
Lichtheimia corymbifera [43] = assay: microbe, parasite or virus in culture; type: functional; conditions: Lichtheimia corymbifera, 272, 24 h
Description: Antifungal activity against Absidia corymbifera 272 after 24 hrs by modified standard CSLI M27-A2 method

Lichtheimia corymbifera [44] = assay: microbe, parasite or virus in culture; type: functional; conditions: Lichtheimia corymbifera, 272, 48 h
Description: Antifungal activity against Absidia corymbifera 272 after 48 hrs by modified standard CSLI M27-A2 method

Lichtheimia corymbifera [45] = assay: Fungicidal activity against Absidia corymbifera 272 after 48 hrs by modified standard CSLI M27-A2 method; type: functional; conditions: Lichtheimia corymbifera, 272, 48 h
[46] = tested on: Trichophyton mentagrophytes; assay: microbe, parasite or virus in culture; type: functional; conditions: Trichophyton mentagrophytes, 445, 72 h
Description: Antifungal activity against Trichophyton mentagrophytes 445 after 72 hrs by modified standard CSLI M27-A2 method

[47] = tested on: Trichophyton mentagrophytes; assay: microbe, parasite or virus in culture; type: functional; conditions: Trichophyton mentagrophytes, 445, 120 h
Description: Antifungal activity against Trichophyton mentagrophytes 445 after 120 hrs by modified standard CSLI M27-A2 method

[48] = tested on: Trichophyton mentagrophytes; assay: Fungicidal activity against Trichophyton mentagrophytes 445 after 120 hrs by modified standard CSLI M27-A2 method; type: functional; conditions: Trichophyton mentagrophytes, 445, 120 h
[49] = Cytotoxicity against CHOK1 cells after 24 hrs by MTT assay; type: ADME, cell-based; conditions: Cricetulus griseus, CHO-K1, 24 h

SMILES: CCCCCCCCCCCCCC[n+]1ccccc1
- MIC95 (Staphylococcus aureus [1]): 0.98 µM
- MIC95 (Staphylococcus aureus [2]): 0.98 µM
- MBC (Staphylococcus aureus [3]): 3.91 µM
- MIC95 (Staphylococcus aureus [4]): 3.91 µM
- MIC95 (Staphylococcus aureus [5]): 3.91 µM
- MBC (Staphylococcus aureus [6]): 3.91 µM
- MIC95 [7]: 0.49 µM
- MIC95 [8]: 0.49 µM
- MBC [9]: 0.49 µM
- MIC95 (Enterococcus sp. [10]): 1.95 µM
- MIC95 (Enterococcus sp. [11]): 1.95 µM
- MBC (Enterococcus sp. [12]): 15.6 µM
- MIC95 (Escherichia coli [13]): 7.81 µM
- MIC95 (Escherichia coli [14]): 7.81 µM
- MBC (Escherichia coli [15]): 7.81 µM
- MIC95 (Klebsiella pneumoniae [16]): 15.6 µM
- MIC95 (Klebsiella pneumoniae [17]): 15.6 µM
- MBC (Klebsiella pneumoniae [18]): 15.6 µM
- MIC95 (Klebsiella pneumoniae [19]): 7.81 µM
- MIC95 (Klebsiella pneumoniae [20]): 7.81 µM
- MBC (Klebsiella pneumoniae [21]): 7.81 µM
- MIC95 (Pseudomonas aeruginosa [22]): 125 µM
- MIC95 (Pseudomonas aeruginosa [23]): 125 µM
- MBC (Pseudomonas aeruginosa [24]): 125 µM
- MIC (Candida albicans [25]): 7.81 µM
- MIC (Candida albicans [26]): 7.81 µM
- MFC (Candida albicans [27]): 125 µM
- MIC (Candida tropicalis [28]): 1.95 µM
- MIC (Candida tropicalis [29]): 1.95 µM
- MFC (Candida tropicalis [30]): 250 µM
- MIC (Pichia kudriavzevii [31]): 0.98 µM
- MIC (Pichia kudriavzevii [32]): 0.98 µM
- MFC (Pichia kudriavzevii [33]): 250 µM
- MIC (Nakaseomyces glabratus [34]): 1.95 µM
- MIC (Nakaseomyces glabratus [35]): 1.95 µM
- MFC (Nakaseomyces glabratus [36]): 250 µM
- MIC (Trichosporon asahii [37]): 31.2 µM
- MIC (Trichosporon asahii [38]): 31.2 µM
- MFC (Trichosporon asahii [39]): 250 µM
- MIC (Aspergillus fumigatus [40]): 15.6 µM
- MIC (Aspergillus fumigatus [41]): 31.2 µM
- MFC (Aspergillus fumigatus [42]): 250 µM
- MIC (Lichtheimia corymbifera [43]): 125 µM
- MIC (Lichtheimia corymbifera [44]): 125 µM
- MFC (Lichtheimia corymbifera [45]): 250 µM
- MIC [46]: 15.6 µM
- MIC [47]: 15.6 µM
- MFC [48]: 31.2 µM
- IC50 [49]: 25 µM

SMILES: CCCCCCCCCCCC[n+]1ccccc1
- MIC95 (Staphylococcus aureus [1]): 0.49 µM
- MIC95 (Staphylococcus aureus [2]): 1.95 µM
- MBC (Staphylococcus aureus [3]): 1.95 µM
- MIC95 (Staphylococcus aureus [4]): 3.91 µM
- MIC95 (Staphylococcus aureus [5]): 3.91 µM
- MBC (Staphylococcus aureus [6]): 3.91 µM
- MIC95 [7]: 0.98 µM
- MIC95 [8]: 3.91 µM
- MBC [9]: 3.91 µM
- MIC95 (Enterococcus sp. [10]): 1.95 µM
- MIC95 (Enterococcus sp. [11]): 3.91 µM
- MBC (Enterococcus sp. [12]): 3.91 µM
- MIC95 (Escherichia coli [13]): 1.95 µM
- MIC95 (Escherichia coli [14]): 3.91 µM
- MBC (Escherichia coli [15]): 3.91 µM
- MIC95 (Klebsiella pneumoniae [16]): 3.91 µM
- MIC95 (Klebsiella pneumoniae [17]): 7.81 µM
- MBC (Klebsiella pneumoniae [18]): 7.81 µM
- MIC95 (Klebsiella pneumoniae [19]): 7.81 µM
- MIC95 (Klebsiella pneumoniae [20]): 7.81 µM
- MBC (Klebsiella pneumoniae [21]): 7.81 µM
- MIC95 (Pseudomonas aeruginosa [22]): 7.81 µM
- MIC95 (Pseudomonas aeruginosa [23]): 7.81 µM
- MBC (Pseudomonas aeruginosa [24]): 7.81 µM
- MIC (Candida albicans [25]): 0.98 µM
- MIC (Candida albicans [26]): 1.95 µM
- MFC (Candida albicans [27]): 1.95 µM
- MIC (Candida tropicalis [28]): 0.49 µM
- MIC (Candida tropicalis [29]): 1.95 µM
- MFC (Candida tropicalis [30]): 3.91 µM
- MIC (Pichia kudriavzevii [31]): 0.49 µM
- MIC (Pichia kudriavzevii [32]): 0.49 µM
- MFC (Pichia kudriavzevii [33]): 0.49 µM
- MIC (Nakaseomyces glabratus [34]): 0.49 µM
- MIC (Nakaseomyces glabratus [35]): 0.49 µM
- MFC (Nakaseomyces glabratus [36]): 0.49 µM
- MIC (Trichosporon asahii [37]): 7.81 µM
- MIC (Trichosporon asahii [38]): 15.6 µM
- MFC (Trichosporon asahii [39]): 15.6 µM
- MIC (Aspergillus fumigatus [40]): 3.91 µM
- MIC (Aspergillus fumigatus [41]): 31.2 µM
- MFC (Aspergillus fumigatus [42]): 31.2 µM
- MIC (Lichtheimia corymbifera [43]): 62.5 µM
- MIC (Lichtheimia corymbifera [44]): 125 µM
- MFC (Lichtheimia corymbifera [45]): 250 µM
- MIC [46]: 1.95 µM
- MIC [47]: 3.91 µM
- MFC [48]: 3.91 µM
- IC50 [49]: 39 µM

SMILES: CCCCCCCCCCCCCCCC[n+]1ccccc1 [CETYLPYRIDINIUM BROMIDE]
- MBC (Staphylococcus aureus [3]): 3.91 µM
- MBC (Staphylococcus aureus [6]): 3.91 µM
- MBC [9]: 3.91 µM
- MBC (Enterococcus sp. [12]): 7.81 µM
- MBC (Escherichia coli [15]): 7.81 µM
- MBC (Klebsiella pneumoniae [18]): 15.6 µM
- MBC (Klebsiella pneumoniae [21]): 7.81 µM
- MBC (Pseudomonas aeruginosa [24]): 125 µM
- MFC (Candida albicans [27]): 15.6 µM
- MFC (Candida tropicalis [30]): 3.9 µM
- MFC (Pichia kudriavzevii [33]): 1.95 µM
- MFC (Nakaseomyces glabratus [36]): 3.91 µM
- MFC (Trichosporon asahii [39]): 7.81 µM
- MFC (Aspergillus fumigatus [42]): 15.6 µM
- MFC (Lichtheimia corymbifera [45]): 62.5 µM
- MFC [48]: 7.81 µM
